# Source: PMC2628638, “Catalytic inhibition of topoisomerase II by a novel rationally designed ATP-competitive purine analogue” (BMC Chemical Biology, 2009)
# How the values were obtained:
# Type in all cases: cell-based
# HL-60 cells [1] = assay: Proliferation assay over 72 hours; details: read-out: half-maximal growth inhibitory concentration (GI50)
# HeLa T-Rex cells = assay: Gamma-H2AX In-Cell Western assay (doxorubicin-induced DNA damage); details: 30 minutes pretreatment, then 1 μM doxorubicin for 2 hours; read-out: IC50, suppression of doxorubicin-induced γH2AX signal
# Experimental: In-Cell Western analysis was carried out as follows. HeLa T-Rex cells were seeded at the cell density of 15 × 10^3 cells per well in black 96-well plates (Greiner Bio-one Vacuette, St Gallen, Switzerland). The day post-seeding, cells were pretreated with increasing concentrations of either ICRF-193, QAP 1 or vehicle (DMSO) for 30 minutes followed by a 2 hours treatment with 1 μM of doxorubicin, or were only treated with the same concentrations of ICRF-193, QAP 1 or vehicle (DMSO) for 2 hours. Treatments were done in triplicate. […] Finally, cells were washed 4 times with 50 μl per well of PBS containing 0.1% Tween-20 for 3 minutes, liquid was removed and plates were kept at 4°C until reading. γH2AX signals were read using the LI-COR Odyssey Infrared Imager with the Odyssey v1.1 software using the 800 nm channel. Blank values correspond to non-specific γH2AX signal detected in wells without primary antibody staining. […] The resulting values for each sample were normalized to the DNA quantity by measuring the corresponding TO-PRO-3 iodide signals. The TO-PRO-3 iodine signals were detected by using the 700 nm channel. The percentage of γH2AX signal was determined for each concentration of ICRF193 and QAP 1 with or without doxorubicin treatment by setting the value for the treatment with vehicle and 1 μM doxorubicin to 100%. […]
# HL-60 cells [2] = assay: Chromosome segregation assay (chromosome spreads)
# Experimental: HL-60 cells were treated overnight for 16 hours with 2 μg/ml aphidicolin (Sigma-Aldrich corporation, St. Louis, MO) and released by washing twice PBS and resuspending into fresh medium. After 6 hours release the cells were treated with 1 mM caffeine (Lancaster Synthesis, Heysham, Lancashire, UK) and with catalytic topoisomerase II inhibitor or vehicle for 2 hours. Cells were washed once with PBS and incubated with 56 mM KCl hypotonic solution for 30 minutes. Cells were pelleted and carefully resuspended in Carnoy's fixative. Cells were pelleted as above, supernatant was removed and cells were resuspended again in 2 ml fixative. Chromosome spreads were prepared by dropping 50 μl cell suspension onto microscopy slides. The slides were allowed to dry and then stained for 10 seconds in Hoechst 33342 dye (Molecular Probes, Eugene, Oregon, prepared 1:1000 in PBS from 10 mg/ml stock). After drying, mounting media (Vectashield®, Vector Laboratories, Burlingame, CA) and a cover slip were added. Samples were observed using an immersion oil lens (100 ×, Nikon, Plan Apo VC) by fluorescence microscopy (Nikon Eclipse, E600) in the DAPI channel. Images were acquired using analySIS® software (Soft Imaging System GmbH, Münster, Germany). Representative images were converted to grayscale, inverted and contrast adjusted with Adobe Photoshop. Mitotic cells were categorized as described.
# HL-60 cells [3] = assay: Gamma-H2AX Western blot (doxorubicin-induced DNA damage); details: both drugs 5 μM, 30 minutes pretreatment, doxorubicin 2 hours
# Experimental: Histone extracts of HL-60 or HeLa T-Rex cells for Western blot analysis were prepared as follows: Following treatments, medium was removed and cells were collected/washed with PBS. Cells were centrifuged for 5 minutes at 1500 rpm and 4°C and the cell pellet was resuspended in 300 μl of ice-cold hypotonic buffer (see above). Cells were transferred in a 1.5 ml Eppendorf tube and incubated for 15 minutes on ice. Thereafter, NP-40 was added to the cells to a final concentration of 0.6% (v/v) and cells were disrupted by pumping 10–15 times through a 1 ml syringe connected to a 23-gauge needle. The extract was centrifuged for 10 minutes at 8000 rpm and 4°C. The supernatant (cytoplasmic fraction) was removed and the nuclear pellet was washed once with 500 μl of ice-cold hypotonic buffer for 4 minutes at 8000 rpm. Nuclear proteins were extracted by addition of 22 μl sample buffer and boiling for 3 minutes. Samples were resolved by 15% SDS-PAGE following transfer to PVDF membrane. After blocking, membranes were incubated either with anti-γH2AX (clone JBW301, 05–636, Upstate, Charlottesville, VA, diluted 1:1000 in PBS containing 0.1% Tween 20 and 5% milk) or histone H3 (catalog number 9715, Cell Signaling Technologies Inc., Beverly, MA, diluted 1:1000 in TBS containing 0.1% Tween 20 and 5% milk) antibodies overnight at 4°C.
# [4] = tested on: HCC1937 BRCA1 mutant and HCC1937 BRCA1 reconstituted cells; assay: Clonogenic growth assay (WST-1, colony counting); details: continuous treatment for 9 days, WST-1 and colony numbers
# Experimental: HCC1937 BRCA1 mutant and HCC1937 BRCA1 reconstituted breast ductal carcinoma cells were cultured in RPMI-1640 medium supplemented with 10% fetal calf serum, 2 mM L-glutamine, 1 mM sodium pyruvate, 4.5 g/l glucose and 1% (v/v) penicillin/streptomycin. Status of BRCA1 was corroborated by immunoprecipitation using 50 μg nuclear extracts and 1 μg mouse monoclonal antibody MS110 (ab16780, Abcam Inc., Cambridge, MA), which is directed towards the amino-terminus of the protein. Blots were probed with BRCA1 carboxy-terminal specific mouse monoclonal antibody D9 (sc-6954, Santa Cruz Biotechnologies, Santa Cruz, CA) and, following stripping, re-probed with antibody MS110. For assays, 5000 cells in 3 ml medium were seeded per well of 6 well plates in duplicates. The day after, vehicle (DMSO) or compounds were added. After one week medium was exchanged and vehicle or compounds were re-added for an additional two days. To assess proliferation the medium in each well was replaced with 1 ml medium containing 100 μl WST-1 reagent and incubation for 20 minutes at 37°C. Of each sample 110 μl supernatant were transferred into a 96 well plate and the OD was read at 450 nm (filter at 630 nm) on a SpectraMax Plus microtiter plate reader using SoftMax Pro software (Molecular Devices). For background correction, the blank value consisted of 100 μl medium containing 10 μl WST-1. Thereafter, colonies were stained by removing medium, washing cells once with PBS and incubation with 1 ml crystal violet solution for 30 minutes at room temperature. Cells were washed twice with PBS and colonies were counted using an Artec Counter (Model 880, Artec, Dyntatech Laboratories Inc.) with diameter cut-off set to 0.2 mm. Data were expressed as growth or colony numbers relative to vehicle control treatments (100%).
substance,measurement,setting,value
ICRF-193 [reference compound],GI50,HL-60 cells [1],250 nM
same,IC50,HeLa T-Rex cells,~200 nM
same,chromosome segregation at mitosis,HL-60 cells [2]; 400 nM with 1 mM caffeine for 2 hours after 6 hours release,anaphases looked abnormal
same,chromosome segregation at mitosis,HL-60 cells [2]; 1 μM with caffeine for 2 hours after 6 hours release from aphidicolin,no normal anaphases or telophases could be observed
same,effect of pretreatment on doxorubicin-induced γH2AX (Western blot),HL-60 cells [3],suppressed
same,sensitivity of BRCA1 mutant versus BRCA1 reconstituted HCC1937 cells,[4],somewhat more sensitive
